Data from patent US20140243332A1, “METHODS OF TREATING CANCERS CHARACTERIZED BY ABERRENT ROS1 ACTIVITY” (Oregon Health & Science University, priority 2013, published 2014).
“And” between values parts separate entries of the source, which are not always exact repeats. Equal values may be shown once. Read-outs that look alike come from different tables or passages of the source.

Legend:
Ba/F3 parental cells = test: Cell viability (MTS) assay, Ba/F3 parental; format: cell-based; settings: Mus musculus
Procedure: (§1) The parental Ba/F3 cell line was cultured in RPMI 1640 medium with 10% FBS, L-glutamine, penicillin/streptomycin and 15% WEHI-conditioned media. Ba/F3 cell lines were maintained at densities of 0.5×10^6 to 1.5×10^6 per ml of media. FIG-ROS and SLC-ROS Ba/F3 lines were created by infecting the parental Ba/F3 with retrovirus expressing either human FIG-ROS-S (indicated FIG-ROS herein) or SLC-ROS-S (indicated SLC-ROS herein). Stable transfectant lines were sorted for GFP expression on a FACS Aria® flow cytometer. Cells were counted daily using Guava ViaCount® reagent and Guava Personal Cell Analysis® flow cytometer. […] Early passage NIH3T3 cells were infected with retrovirus expressing either FIG-ROS or SLC-ROS and sorted for GFP expression as described above for Ba/F3 cells. HCC78 cells were cultured in RPMI 1640 medium with 10% FBS, L-glutamine, and penicillin/streptomycin. This media is referred to as RPMI-10% FBS herein.
(§2) […]. The Ba/F3 parental line was also tested. (O'Dwyer M E and Druker B J, Lancet Oncology 1, 207-211 (2000); Walters D K et al, Cancer Cell 10, 65-75 (2006); and Heukamp L C et al, Science Translational Medicine 4, 141ra191 (2012); […].

HCC78 cells = test: Cell viability (MTS) assay, HCC78; format: cell-based, human; settings: for HCC78 cell growth sensitivity to MET inhibitors: FIG. 6C
Procedure: as §1

PC9 cells = test: Cell viability assay, PC9; format: cell-based, human; settings: PC9 cells (activated EGFR), FIG. 6B
Procedure: (§3) IC50 was determined from non-linear regression curve fit analysis of the dose response curves.

HCC4011 cells = test: Cell viability assay, HCC4011; format: cell-based, human; settings: HCC4011 cells (activated EGFR), FIG. 6B
Procedure: as §3

[1] = tested on: FIG-ROS murine cholangiocarcinoma tumor cells; test: cells; settings: Mus musculus, read-out: IC50 cell growth
Procedure: (§4) Hepatoblasts of the genotype AlbCre^+/−; Isl Kras^G12D+/−; p53^R172H/loxp were isolated from ED14.5 mouse embryos and retrovirally transduced with either the FIG-ROS fusion, turbo RFP or a short hairpin RNA against Pten (shPten.1522). At 48 hours following transduction, 1×10^6 cells were resuspended in 25 μl Matrigel and injected sub-capsular into the livers of immune-deficient mice. Upon tumor formation, tumors were explanted and subjected to collagenase digestion. Digests were plated onto gelatin-coated plates. Tumor cells were enriched by either differential trypsinization or cell sorting. […] These four cell lines were further cultured and maintained in DMEM-High glucose medium supplemented with 10% FCS, L-glutamine and penicillin/streptomycin.
(§5) Cell lines were distributed in 96-well plates and incubated with the indicated concentrations of inhibitor for 72 hours. […] Ba/F3 cell lines were plated at 4×10^3 cells/well. HCC78 and mCC cell lines were plated at 1.5×10^3 cells/well. All cell types were seeded in a final volume of 80 microliters. A 20 microliter volume of five-fold concentrated inhibitor media was added. Cell proliferation was measured using a […] viability assay (CellTiter96 Aqueous One® Solution; Promega). A BioTek Synergy 2® plate reader was used to read the absorbance at 490 nm at 30 minutes and 1 hour after addition of MTS. To facilitate comparison between experiments, the raw MTS absorbance of vehicle (0.1% DMSO) treated cells was set to 1 and absorbance from inhibitor treated wells was normalized to the vehicle treated value. […] Data were normalized using Microsoft Excel® and further non-linear regression curve fit analysis of the normalized data for determination of IC50 was performed using Graphpad Prism® software.
(§6) To directly assess inhibition of FIG-ROS phosphorylation, immunoblot analyses of lysates from vehicle or inhibitor-treated cells were performed.

[2] = tested on: shPten murine cholangiocarcinoma tumor cells; test: cells; settings: Mus musculus, read-out: IC50 cell growth
Procedure: as §4, §5, §6

[3] = tested on: FIG-ROS cholangiocarcinoma tumor cells; test: Anchorage-independent colony formation in soft agar, FIG-ROS cholangiocarcinoma cells; format: cell-based, murine; settings: dose dependent
Description: […]. The values indicate the mean and the error bars indicate the standard error of the mean of 3 independent wells.
(§7) . The inhibition was dose dependent (FIG. 2B). […].

FIG-ROS tumors = test: In vivo treatment of mice bearing subcutaneous FIG-ROS cholangiocarcinoma tumors; settings: 25 mg/kg oral gavage once daily, 9 days, immunodeficient mice; foretinib p<0.0001 for Lines 4 and 6
[4] = tested on: ENU-treated Ba/F3 FIG-ROS cells; test: Accelerated cell-based (ENU) mutagenesis screen, outgrowth of Ba/F3 FIG-ROS clones
FIG-ROS [5] = biological target: T1, FIG-ROS (Homo sapiens, UniProt P08922); test: Immunoblot of Ba/F3 FIG-ROS lysates; format: cell-based; design: expressed in transfected cells; host or cells: Ba/F3 (A14), retroviral pMSCV-IRES-GFP; the other entry of the earlier key: GOPC (Q9HD26, Golgi-associated PDZ and coiled-coil motif-containing protein); settings: Ba/F3 FIG-ROS cells, increasing amounts, immunoblot FIG. 1C
Procedure: (§8) FIG. 1C is an image of an immunoblot of lysates of Ba/F3 FIG-ROS and Ba/F3 SLC-ROS and the indicated downstream effectors after treatment with the indicated compounds. Images shown are representative of three independent experiments.
(§9) Ba/F3 FIG-ROS, Ba/F3 SLC-ROS, HCC78 and mCC cell lines were treated with the indicated concentration of inhibitors for 1-2 hours. […] The protein content of the cell lysates was determined and lysates were either used for immunoprecipitation where indicated or extracted with SDS Sample buffer for 15 minutes at 80° C. Proteins were transferred to Immobilon-FL membranes and immunoblotted with antibodies specific for phospho-ROS1 (Cell Signaling Technology (CST) #3078), total ROS1 (CST #3266), phopsho-Shp2 (CST #3751), total Shpt (CST #3752), phospho-Stat3 (CST #9145), total Stat3 (CST #4904), phospho-Erk1/2 (CST #9101), total Erk2 (Santa Cruz #SC-1647), phospho-S6 (CST #4858), total S6 (CST #2216), phospho-Src (CST #2105), total Src (CST #2110), α-tubulin (Sigma T6199), or β-actin (Sigma A1978) as indicated. Images of the blots were generated by the LI-COR Odyssey® imaging system, following the manufacturer's protocol for immunoblot detection with use of IR-dye conjugated secondary antibodies.

SLC-ROS = SLC-ROS (Homo sapiens, UniProt P08922); test: Immunoblot of Ba/F3 SLC-ROS lysates; format: cell-based; design: SLC34A2 N-terminal portion, fusion partner; expressed in transfected cells; host or cells: Ba/F3 (A15), retroviral pMIG; the other entry of the earlier key: SLC34A2 (O95436, Sodium-dependent phosphate transport protein 2B); settings: Ba/F3 SLC-ROS cells, increasing amounts, immunoblot FIG. 1C
Procedure: as §8, §9

FIG-ROS [6] = biological target: T1, FIG-ROS; test: Immunoblot of FIG-ROS murine cholangiocarcinoma cell lysates; format: cell-based; design: expressed in transfected cells; host or cells: murine cholangiocarcinoma tumour cell lines (lines 3 and 4) derived from transduced mouse hepatoblasts; the other entry of the earlier key: GOPC (Q9HD26, Golgi-associated PDZ and coiled-coil motif-containing protein); settings: 100 nM, FIG-ROS murine cholangiocarcinoma cells
Procedure: […]. Images shown are representative of three independent experiments.
as §9, §7

Ba/F3 FIG-ROS cells [7] = biological target: T2, Ba/F3 FIG-ROS cells (Homo sapiens, UniProt P08922); test: Cell viability (MTS) assay, Ba/F3 FIG-ROS; format: cell-based; settings: read-out: IC50 (50% growth inhibitory concentration); Ba/F3 FIG-ROS cells, 72 hours, MTS
T2 construct: fused on or other part: GFP is co-expressed from an IRES in pMIG and is not fused; Q9HD26 (Golgi-associated PDZ and coiled-coil motif-containing protein)
Description: as §1, with “Ba/F3” for “The parental Ba/F3 cell line was cultured in RPMI 1640 medium with 10% FBS, L-glutamine, penicillin/streptomycin and 15% WEHI-conditioned media. Ba/F3”, “HCC78 cells were cultured in RPMI 1640 medium with 10% FBS, L-glutamine, and penicillin/streptomycin.” left out
The FIG-ROS-S (FIG-ROS) fusion protein has been reported in non-small cell lung cancers (NSCLC), glioblastomas, and cholangiocarcinomas.

Ba/F3 FIG-ROS cells [8] = biological target: T2, Ba/F3 FIG-ROS cells; test: Apoptosis induction (Annexin V / 7-AAD), Ba/F3 FIG-ROS; format: cell-based; settings: 15 nM, 48 hours
Procedure: (§10) FIG. 5A is a set of three bar graphs depicting the induction of apoptosis in Ba/F3 FIG-ROS, Ba/F3 SLC-ROS and Ba/F3 ALK F1174L cells after 48 hours of treatment with the indicated doses of the indicated compounds. The number of cells that were Annexin V and 7-AAD positive after inhibitor treatment was normalized to number of cells staining positive with these markers with vehicle treatment (basal). A minimum of 2000 cells were counted per condition. Rate of apoptosis is shown as fold over basal. Basal apoptosis in Ba/F3 FIG-ROS, Ba/F3 SLC-ROS and Ba/F3 ALK F1174 cells was 3.6%, 2.8% and 1.2% respectively.

Ba/F3 SLC-ROS cells [9] = biological target: T3, Ba/F3 SLC-ROS cells (Homo sapiens, UniProt P08922); test: Apoptosis induction (Annexin V / 7-AAD), Ba/F3 SLC-ROS; format: cell-based; settings: 15 nM, 48 hours
T3 construct: SLC-ROS-S (SLC-ROS) was cloned from cDNA made from HCC78 cells; fused on or other part: GFP is co-expressed from an IRES in pMIG and is not fused; O95436 (Sodium-dependent phosphate transport protein 2B)
Procedure: as §10

Ba/F3 SLC-ROS cells [10] = biological target: T3, Ba/F3 SLC-ROS cells; test: Cell viability (MTS) assay, Ba/F3 SLC-ROS; format: cell-based; settings: 72 hours, read-out: IC50 (the source's name)
Procedure: as §1, §2

[11] = BaF3, Ba/F3 parental cells, read-out: IC50 (insensitive/resistant up to stated concentration)

T1 sequence (P08922 with tags, fused parts or gaps): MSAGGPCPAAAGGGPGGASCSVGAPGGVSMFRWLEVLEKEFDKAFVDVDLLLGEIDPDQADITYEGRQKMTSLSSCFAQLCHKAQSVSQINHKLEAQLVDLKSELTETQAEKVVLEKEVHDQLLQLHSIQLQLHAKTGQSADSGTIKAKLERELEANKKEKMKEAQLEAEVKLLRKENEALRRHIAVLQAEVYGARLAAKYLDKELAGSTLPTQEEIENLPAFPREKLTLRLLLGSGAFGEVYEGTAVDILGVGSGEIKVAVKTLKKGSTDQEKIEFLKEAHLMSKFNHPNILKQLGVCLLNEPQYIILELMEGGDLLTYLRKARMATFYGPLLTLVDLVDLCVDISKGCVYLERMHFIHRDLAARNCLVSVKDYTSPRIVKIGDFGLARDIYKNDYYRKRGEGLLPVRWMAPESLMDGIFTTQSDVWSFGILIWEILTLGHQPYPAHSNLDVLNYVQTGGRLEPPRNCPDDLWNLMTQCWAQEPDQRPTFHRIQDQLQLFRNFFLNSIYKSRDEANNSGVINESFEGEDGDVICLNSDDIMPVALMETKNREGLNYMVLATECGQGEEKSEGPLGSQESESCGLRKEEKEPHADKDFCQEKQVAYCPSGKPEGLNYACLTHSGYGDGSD
Sequence of SLC-ROS (P08922 with tags, fused parts or gaps): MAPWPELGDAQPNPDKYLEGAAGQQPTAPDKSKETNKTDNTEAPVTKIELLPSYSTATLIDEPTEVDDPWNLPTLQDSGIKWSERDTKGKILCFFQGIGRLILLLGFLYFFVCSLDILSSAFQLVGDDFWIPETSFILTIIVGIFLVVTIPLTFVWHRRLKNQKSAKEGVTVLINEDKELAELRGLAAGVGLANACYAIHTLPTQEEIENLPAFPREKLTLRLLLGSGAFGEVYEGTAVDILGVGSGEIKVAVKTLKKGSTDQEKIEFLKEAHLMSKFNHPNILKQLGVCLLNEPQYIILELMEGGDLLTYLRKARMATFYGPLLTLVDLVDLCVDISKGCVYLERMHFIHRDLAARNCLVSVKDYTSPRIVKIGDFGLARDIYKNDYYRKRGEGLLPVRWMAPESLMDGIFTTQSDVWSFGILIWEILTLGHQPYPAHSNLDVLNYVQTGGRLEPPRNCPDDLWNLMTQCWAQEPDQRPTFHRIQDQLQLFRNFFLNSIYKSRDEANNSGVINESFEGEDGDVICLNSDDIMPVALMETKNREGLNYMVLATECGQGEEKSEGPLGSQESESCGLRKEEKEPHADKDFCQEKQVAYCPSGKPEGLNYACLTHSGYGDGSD
T2 sequence (P08922 whole entry, change not shown, the tested form may be a part): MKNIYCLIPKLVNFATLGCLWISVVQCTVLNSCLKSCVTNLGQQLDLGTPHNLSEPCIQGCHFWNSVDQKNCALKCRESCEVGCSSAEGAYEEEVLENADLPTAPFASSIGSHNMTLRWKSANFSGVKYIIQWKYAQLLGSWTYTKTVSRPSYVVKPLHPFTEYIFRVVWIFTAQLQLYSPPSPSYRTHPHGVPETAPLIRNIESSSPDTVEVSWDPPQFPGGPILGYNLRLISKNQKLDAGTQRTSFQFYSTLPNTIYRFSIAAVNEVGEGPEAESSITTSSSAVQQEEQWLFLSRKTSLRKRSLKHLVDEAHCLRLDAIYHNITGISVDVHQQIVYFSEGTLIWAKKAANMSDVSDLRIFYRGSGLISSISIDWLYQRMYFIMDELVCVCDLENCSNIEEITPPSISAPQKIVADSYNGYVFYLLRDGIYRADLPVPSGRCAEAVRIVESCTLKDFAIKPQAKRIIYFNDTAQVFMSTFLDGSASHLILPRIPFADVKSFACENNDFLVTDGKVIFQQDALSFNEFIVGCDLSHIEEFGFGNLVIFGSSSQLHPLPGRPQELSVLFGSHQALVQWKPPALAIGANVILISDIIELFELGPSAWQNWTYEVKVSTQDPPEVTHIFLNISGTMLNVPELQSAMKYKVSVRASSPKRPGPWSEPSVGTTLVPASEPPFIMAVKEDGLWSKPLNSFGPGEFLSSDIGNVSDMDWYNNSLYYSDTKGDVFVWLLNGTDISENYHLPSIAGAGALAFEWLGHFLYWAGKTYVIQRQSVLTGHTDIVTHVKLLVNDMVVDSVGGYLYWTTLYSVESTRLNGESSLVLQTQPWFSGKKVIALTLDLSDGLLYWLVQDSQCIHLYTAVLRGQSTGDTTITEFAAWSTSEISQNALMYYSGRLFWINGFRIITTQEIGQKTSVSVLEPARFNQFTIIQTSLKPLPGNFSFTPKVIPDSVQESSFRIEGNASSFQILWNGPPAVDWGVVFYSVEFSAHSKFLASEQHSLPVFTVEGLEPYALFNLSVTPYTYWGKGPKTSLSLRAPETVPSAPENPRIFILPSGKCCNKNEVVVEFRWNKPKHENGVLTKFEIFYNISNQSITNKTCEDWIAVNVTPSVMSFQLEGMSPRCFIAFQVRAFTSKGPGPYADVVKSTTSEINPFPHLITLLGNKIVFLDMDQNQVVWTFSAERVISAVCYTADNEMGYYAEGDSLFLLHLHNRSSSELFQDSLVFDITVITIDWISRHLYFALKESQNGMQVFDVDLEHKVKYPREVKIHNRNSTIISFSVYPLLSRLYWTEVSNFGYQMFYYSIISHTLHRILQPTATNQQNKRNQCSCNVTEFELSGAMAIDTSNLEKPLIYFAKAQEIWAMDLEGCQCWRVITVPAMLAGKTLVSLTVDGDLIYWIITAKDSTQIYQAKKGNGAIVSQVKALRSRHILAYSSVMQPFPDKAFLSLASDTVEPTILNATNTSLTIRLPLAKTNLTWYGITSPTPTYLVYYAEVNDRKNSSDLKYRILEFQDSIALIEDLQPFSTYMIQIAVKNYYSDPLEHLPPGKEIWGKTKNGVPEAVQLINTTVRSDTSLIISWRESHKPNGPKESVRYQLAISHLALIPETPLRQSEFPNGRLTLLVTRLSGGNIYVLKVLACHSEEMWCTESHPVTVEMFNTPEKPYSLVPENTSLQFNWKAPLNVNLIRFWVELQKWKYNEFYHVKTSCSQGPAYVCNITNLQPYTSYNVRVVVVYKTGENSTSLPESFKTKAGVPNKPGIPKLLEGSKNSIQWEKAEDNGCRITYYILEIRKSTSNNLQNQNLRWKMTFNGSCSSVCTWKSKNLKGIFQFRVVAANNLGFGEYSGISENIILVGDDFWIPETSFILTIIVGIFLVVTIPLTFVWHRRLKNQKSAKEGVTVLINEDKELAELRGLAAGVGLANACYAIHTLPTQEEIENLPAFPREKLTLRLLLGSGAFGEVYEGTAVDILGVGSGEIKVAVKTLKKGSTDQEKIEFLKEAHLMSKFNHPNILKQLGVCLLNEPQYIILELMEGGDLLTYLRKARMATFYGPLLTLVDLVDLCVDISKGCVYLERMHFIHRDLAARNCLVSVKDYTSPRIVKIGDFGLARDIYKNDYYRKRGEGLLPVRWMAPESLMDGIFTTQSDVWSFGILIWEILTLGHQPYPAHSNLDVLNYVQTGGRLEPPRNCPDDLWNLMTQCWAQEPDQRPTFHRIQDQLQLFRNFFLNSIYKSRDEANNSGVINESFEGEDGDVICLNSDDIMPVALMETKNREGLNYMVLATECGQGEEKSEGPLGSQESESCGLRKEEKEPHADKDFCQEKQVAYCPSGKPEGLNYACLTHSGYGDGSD
T3 sequence (P08922 whole entry, change not shown, the tested form may be a part): as above

For C[C@@H](Oc1cc(-c2cnn(C3CCNCC3)c2)cnc1N)c1c(Cl)ccc(F)c1Cl [crizotinib], the IC50 (Ba/F3 parental cells; BaF3, read-out: IC50 (insensitive/resistant up to stated concentration)) was over 2000 nM, the IC50 (HCC78 cells; Homo sapiens, 72 hour exposure, read-out: IC50 HCC78 cell growth) was 2200 nM and the “sensitivity of cell growth” value (PC9 cells) was “relatively insensitive”. For the same molecule, the “sensitivity of cell growth” value (HCC4011 cells) was “relatively insensitive”, the IC50 [1] was 690 nM and the IC50 [2] was over 2000 nM. The “anchorage-independent colonies in soft agar” value [3] was “inhibited”, the FIG-ROS tumor volume (FIG-ROS tumors) was “moderate but statistically insignificant effect” and the “frequency of outgrowth of clones” value ([4]; 500 nM crizotinib) was 40%. For the same molecule, the outgrowth of clones ([4]; 2000 and 2500 nM crizotinib) was “no outgrowth of clones”, the “autophosphorylation of FIG-ROS and ROS1-driven signaling (phospho-Shp2, phospho-ERK1/2)” value (FIG-ROS [5]) was “dose dependent decrease” and the “autophosphorylation of SLC-ROS and ROS1-driven signaling (phospho-Shp2, phospho-ERK1/2)” value (SLC-ROS) was “dose dependent decrease”. The “auto-phosphorylation of FIG-ROS and phosphorylation of Shpt and ERK1/2” value (FIG-ROS [6]) was “more moderate effect”.
With Cn1c2ccccc2c2c3c(c4c5ccccc5n(CCC#N)c4c21)CNC3=O [Gö6976, 12-(2-cyanoethyl)-6,7,12,13-tetrahydro-13-methyl-5-oxo-5H-indolo(2,3-a)pyrrolo(3,4-c)-carbazole] the GI50 (Ba/F3 FIG-ROS cells [7]) was 1.4 nM, the IC50 (Ba/F3 parental cells; [11]) was over 2000 nM and the apoptosis induction (Ba/F3 FIG-ROS cells [8]) was “induced apoptosis”. The apoptosis induction (Ba/F3 SLC-ROS cells [9]) was “induced apoptosis”, the “autophosphorylation of FIG-ROS and ROS1-driven signaling (phospho-Shp2, phospho-ERK1/2)” value (FIG-ROS [5]) was “dose dependent decrease” and the “autophosphorylation of SLC-ROS and ROS1-driven signaling (phospho-Shp2, phospho-ERK1/2)” value (SLC-ROS) was “dose dependent decrease”.
For Cn1cc(-c2ccc3nnc(C(F)(F)c4ccc5ncccc5c4)n3n2)cn1 [JNJ38877605], the “HCC78 cell growth sensitivity to MET inhibitors” value (HCC78 cells) was “resistant”.
In the case of C#Cc1cccc(Nc2ncnc3cc(OCCOC)c(OCCOC)cc23)c1 [erlotinib], the “sensitivity of cell growth” value (PC9 cells) is reported as “sensitive” and the “sensitivity of cell growth” value (HCC4011 cells) is reported as “sensitive”.
For COc1cc(N2CCC(N3CCN(C)CC3)CC2)ccc1Nc1ncc(Cl)c(Nc2ccccc2S(=O)(=O)C(C)C)n1 [TAE684], the GI50 (Ba/F3 FIG-ROS cells [7]) was 2 nM and 1.8 nM, the GI50 (Ba/F3 SLC-ROS cells [10]) was 28 nM and the IC50 (Ba/F3 parental cells; [11]) was over 2000 nM. The “autophosphorylation of FIG-ROS and ROS1-driven signaling (phospho-Shp2, phospho-ERK1/2)” value (FIG-ROS [5]) was “dose dependent decrease” and the “autophosphorylation of SLC-ROS and ROS1-driven signaling (phospho-Shp2, phospho-ERK1/2)” value (SLC-ROS) was “dose dependent decrease”.
In the case of Cn1cc(-c2ccc3nnc(Sc4ccc5ncccc5c4)n3n2)cn1 [SGX-523], the “HCC78 cell growth sensitivity to MET inhibitors” value (HCC78 cells) is reported as “resistant”.
